Experimental data reported in ChEMBL document CHEMBL4251584, “Xanthine oxidase inhibitory activity of natural and hemisynthetic flavonoids from Gardenia oudiepe (Rubiaceae) in vitro and molecular docking studies” (Eur J Med Chem, 2018).
pIC50: −log10 of the molar value.

Key:
[1] = biological target: T1, Xanthine dehydrogenase/oxidase (Bos taurus, UniProt P80457); assay: Inhibition of bovine milk xanthine oxidase using xanthine as substrate preincubated for 15 mins followed by substrate addition measured after 30 mins by UV-VIS spectrophotometric analysis; details: for inhibition (INH): cattle, 0.5 h
T1 sequence (P80457 whole entry): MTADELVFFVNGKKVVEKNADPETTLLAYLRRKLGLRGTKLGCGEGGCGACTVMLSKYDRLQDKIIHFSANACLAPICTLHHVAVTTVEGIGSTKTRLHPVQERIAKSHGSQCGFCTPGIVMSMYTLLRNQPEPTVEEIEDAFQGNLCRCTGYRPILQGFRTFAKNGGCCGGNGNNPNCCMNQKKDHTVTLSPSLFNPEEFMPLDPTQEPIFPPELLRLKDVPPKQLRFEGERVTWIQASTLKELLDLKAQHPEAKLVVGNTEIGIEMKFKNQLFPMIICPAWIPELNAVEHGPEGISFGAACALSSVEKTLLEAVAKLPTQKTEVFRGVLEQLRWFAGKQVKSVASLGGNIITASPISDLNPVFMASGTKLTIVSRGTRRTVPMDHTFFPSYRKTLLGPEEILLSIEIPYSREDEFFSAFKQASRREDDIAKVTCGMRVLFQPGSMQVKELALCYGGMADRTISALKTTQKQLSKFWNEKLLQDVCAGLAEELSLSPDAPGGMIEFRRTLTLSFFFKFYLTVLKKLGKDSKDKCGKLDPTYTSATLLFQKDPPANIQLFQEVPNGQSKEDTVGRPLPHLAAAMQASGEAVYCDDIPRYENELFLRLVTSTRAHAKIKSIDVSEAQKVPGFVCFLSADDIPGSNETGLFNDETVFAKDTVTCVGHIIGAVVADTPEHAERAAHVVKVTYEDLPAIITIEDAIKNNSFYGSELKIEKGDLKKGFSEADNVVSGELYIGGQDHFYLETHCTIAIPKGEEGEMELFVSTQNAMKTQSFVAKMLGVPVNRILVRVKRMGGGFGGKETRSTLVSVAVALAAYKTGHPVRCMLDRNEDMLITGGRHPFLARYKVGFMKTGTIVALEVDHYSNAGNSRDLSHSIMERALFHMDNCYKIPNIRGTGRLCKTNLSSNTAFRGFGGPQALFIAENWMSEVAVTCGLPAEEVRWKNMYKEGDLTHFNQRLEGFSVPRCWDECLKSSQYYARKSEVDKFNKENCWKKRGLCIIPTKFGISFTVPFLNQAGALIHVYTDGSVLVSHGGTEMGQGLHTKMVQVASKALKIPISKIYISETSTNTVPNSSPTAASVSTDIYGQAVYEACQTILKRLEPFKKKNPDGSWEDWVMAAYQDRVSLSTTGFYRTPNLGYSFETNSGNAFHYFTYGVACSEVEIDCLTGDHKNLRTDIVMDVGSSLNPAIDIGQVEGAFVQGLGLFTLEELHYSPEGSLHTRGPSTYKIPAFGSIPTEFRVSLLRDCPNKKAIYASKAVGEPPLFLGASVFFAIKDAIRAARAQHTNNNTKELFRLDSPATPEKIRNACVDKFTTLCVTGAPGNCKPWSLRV

[2] = biological target: T1, Xanthine dehydrogenase/oxidase; assay: Potency index, ratio of IC50 for allopurinol to IC50 for test compound for inhibition of bovine milk xanthine oxidase using xanthine as substrate preincubated for 15 mins followed by substrate addition measured after 30 mins by UV-VIS spectrophotometric analysis; details: cattle, 0.5 h

| SMILES | pIC50 [1] | inhibition (INH) [1] | Ratio IC50 [2] |
| --- | --- | --- | --- |
| COc1cc(-c2oc3cc(O)cc(O)c3c(=O)c2OC)cc(O)c1OC | 7.05 | Dose-dependent effect | 3 |
| COc1cc(-c2oc3cc(O)c(OC)c(O)c3c(=O)c2OC)cc(OC)c1OC | 5.34 | Dose-dependent effect |  |
| COc1cc(-c2oc3cc(O)c(OC)c(O)c3c(=O)c2OC)cc(O)c1OC | 5.16 | Dose-dependent effect |  |
| COc1cc(O)c2c(=O)c(OC)c(-c3cc(O)c(OC)c(OC)c3)oc2c1 | 4.68 | Dose-dependent effect |  |
| COc1ccc(-c2oc3cc(OC)c(OC)c(O)c3c(=O)c2OC)cc1 | 4.83 | Dose-dependent effect |  |
| COc1ccc(-c2oc3cc(OC)cc(O)c3c(=O)c2OC)cc1 | 5.01 | Dose-dependent effect |  |
| COc1c(O)cc2oc(-c3ccc(O)cc3)c(OC)c(=O)c2c1O [3,6-DIMETHOXY KAEMPFEROL] | 7.30 | Dose-dependent effect | 5 |
| COc1c(-c2ccc(O)cc2)oc2cc(O)cc(O)c2c1=O [ISOKAEMPFERIDE] | 8.40 | Dose-dependent effect | 63 |
| COc1ccc(-c2oc3cc(O)c(OC)c(O)c3c(=O)c2OC)cc1 [SANTIN] | 6.66 | Dose-dependent effect |  |
